Source: patent publication US9527889B2, “RFamide-related peptides and methods thereof” (THE REGENTS OF THE UNIVERSITY OF MICHIGAN, priority 2010, dated 2016)
Read-outs that look alike come from different tables or passages of the source. Non-standard residues stand in square brackets, D forms with d. Residues, ends and D or L forms follow the SMILES beside them. No end group written: not given here. *: point of attachment. Bpa = N[C@@H](Cc1ccc(C(=O)c2ccccc2)cc1)C(=O)O; Myristoyl = CCCCCCCCCCCCCC(=O)*

What was measured:
Protophormia terraenovae = assay: Cardiac arrest in intact blowfly (electrocardiograms); type: in vivo
Experimental: In order to determine the effect of DMS on cardiac arrest in a larger invertebrate various concentrations of DMS were applied to intact Protophormia terraenovae, a blowfly, and electrocardiograms were recorded continuously [Angioy et al. 2007]. […] Signal resumed in animals; the recovery time shortened at lower DMS concentrations.

D. melanogaster heart = type: in vivo, Drosophila melanogaster; settings: for heart rate, % of the basal contraction rate: within 1 minute; for EC50: in vivo, maximal effect 1 minute after microinjection, read-out: best-fit EC50, decrease of heart rate; for effect on fly heart rate / contractility (in words): DMS analogs
Experimental: D. melanogaster Oregon R wild-type strain flies were maintained on cornmeal molasses media at 24° C. under a 12 hour light/dark cycle. The animals selected for analysis were larvae, prepupae, or adults; both females and males were analyzed and no difference in response was observed. An animal was positioned onto double-stick tape adhered to a microscope stage and heart rate was monitored for 2 minutes before and 10 minutes after saline (control) or peptide was delivered as previously described (Nichols, R. Et al. (1999), Zornik, E. et al. (1999)). A drawn-out micropipette was used to deliver saline or peptide (40 ηl) into the hemolymph (blood) at a site anterior to the brain to avoid tissue damage to the central nervous system and dorsal vessel (aorta and heart). Each animal received only one microinjection of saline or peptide. In some cases, recordings were extended up to 1 hour to establish the return to baseline. Data were averaged from several animals (n≧10) and reported relative to the basal heart rate.
The influence of DMS (Dromyosuppressin peptide; […]amide—SEQ ID NO: 1) on in vivo heart rate in D. melanogaster was compared to physiological saline to evaluate dose-dependent effects of myosuppressin in cardiac function in a model amenable to molecular genetics. […] The dose-dependent effects of dromyosuppressin reported were evaluated in pupae because the animals are immobile and, thus, this developmental stage is the easiest to observe and record heart contractions. The effects of DMS were measured over a range of ten-fold concentrations from 10^−6 M to 10^−11 M and compared to the influence of physiological saline (mean±SEM; 91±3% basal contraction rate at 1 minute; n=18). […] Significant reductions in heart rate were detected in response to DMS concentrations of 10^−9 M and higher, and the peak responses were observed within 1 minute of microinjection of the peptide. The DMS-induced effects typically were observed over 2-3 minutes, and were reversible, returning to approximately basal contraction rate levels in about 5 minutes in response to 10^−8 M and 10^−9 M. At the highest concentrations tested, 10^−6 M and 10^−7 M, DMS decreased heart rate to 25±11% (n=14) and 25±7% (n=16), respectively, within 1 minute. The DMS-induced effects were sustained for 3-5 minutes before they returned to approximately basal contraction rate levels within 30 minutes.

[1] = test system: isolated adult rat cardiac myocytes; type: cell-based; settings: for ability to bind and affect myocyte contractile function: 10^−8M, individually administered; for % Change baseline SL / % Change dep v (shortening rate) / % Change peak h (shortening amplitude) / % Change ret v (re-lengthening rate): 10^−8 M; for character relative to hRFRP-1 on myocyte contractile function (agonist, antagonist, reverse agonist; in words): peptides at 10^−8M or 10^−7M, peak shortening, departure and return velocity
From the text: Adult rat and rabbit ventricular cardiac myocytes were isolated as previously described (Westfall, M. V. Et al. (1997), Westfall, M. V. and Borton, A. R. (2003)). Hearts from Sprague-Dawley rats and New Zealand white rabbits were perfused and enzymatically digested to isolate myocytes; the protocol was approved by The University of Michigan University Committee on Use and Care of Animals (UCUCA) in accordance with university and federal regulatory guidelines. Aliquots of isolated ventricular myocytes were plated on laminin-coated glass coverslips in serum-containing Dulbecco's Modified Eagle Media (Invitrogen, CA, US) supplemented with 5% fetal bovine serum, and 50 U/ml penicillin and 50 μg/ml streptomycin (pen/strep; Sigma-Aldrich, MO, US). Two hours later, media was replaced with serum-free M199 (Invitrogen) supplemented with 1.8 mM Ca^2+, 10 mM HEPES, 10 mM glutathione, and pen/strep. Rat myocytes were transferred to a stimulation chamber and electrically paced the day after isolation (Zornik, E. Et al. (1999), Westfall, M. V. Et al. (1997)). Media was changed daily for all myocyte preparations.
Sarcomere shortening was detected using a video-based detection system (IonOptix, MA, USA) as described earlier (Westfall, M. V. and Borton, A. R. (2003)). Rat myocytes were paced at 0.2 Hz and rabbit myocytes were paced at 0.5 Hz or 1.0 Hz for these studies. Recordings were made prior to application of each peptide concentration, the protein kinase C (PKC) inhibitor bisindolylmaleimide-1, (bis-1; CalBiochem/EMD, NJ, US), or media only (control, C) and at 1, 3, 5, 10 and 15 minutes after application of peptide, bis-1, or media. Signal averaged data were analyzed to determine resting sarcomere length, shortening amplitude (peak shortening), shortening rate (departure velocity), and re-lengthening rate (return velocity), as previously described (Westfall, M. V. Et al. (1997), Westfall, M. V. and Borton, A. R. (2003)), in 7-20 myocytes from 3-4 rats for each peptide concentration, bis-1, and media.

## CC(C)C[C@H](NC(=O)[C@H](Cc1ccccc1)NC(=O)[C@@H](NC(=O)[C@H](Cc1c[nH]cn1)NC(=O)[C@H](CC(=O)O)NC(=O)[C@@H](NC(=O)[C@H](CC(=O)O)NC(=O)[C@@H](N)[C@@H](C)O)C(C)C)C(C)C)C(=O)N[C@@H](CCCNC(=N)N)C(=O)N[C@@H](Cc1ccccc1)C(N)=O [DMS] (H-TDVDHVFLRF-NH2; N-terminus assumed)
Protophormia terraenovae; 10 μM, 1 μM, and 0.1 ηM, n=10 at each concentration
  animals with cardiac arrest: 100%
Protophormia terraenovae; lower concentrations
  animals with cardiac arrest: ~50%
D. melanogaster heart; 10^−6 M and 10^−7 M
  time effects were sustained: 3 to 5 min
  time to return to approximately basal contraction rate: ≤ 30 min
D. melanogaster heart; 10^−6 M, pupae
  heart rate, % of the basal contraction rate: 25±11%
D. melanogaster heart; 10^−7 M, pupae
  heart rate, % of the basal contraction rate: 25±7%
D. melanogaster heart; 10^−8 M and 10^−9 M
  time to return to approximately basal contraction rate: about 5 minutes
D. melanogaster heart; 10^−10 M, pupae
  heart rate, % of the basal contraction rate: 77±4%
D. melanogaster heart; after microinjection, pupae
  time to maximal effect on heart rate: ≤ 1 min
D. melanogaster heart
  EC50: 3 nM
D. melanogaster heart; similar range of concentrations, larvae and adults
  responses on heart contractions in larvae and in adults: less robust but significant responses
D. melanogaster heart; typical, 10^−8 M and 10^−9 M
  time over which effects were observed: 2 to 3 min

## CC(C)C[C@H](NC(=O)[C@H](Cc1ccccc1)NC(=O)[C@@H](NC(=O)[C@H](Cc1c[nH]cn1)NC(=O)[C@H](CC(=O)O)NC(=O)[C@@H](NC(=O)[C@H](Cc1ccc(C(=O)c2ccccc2)cc1)NC(=O)[C@@H](NC(=O)[C@@H](N)Cc1ccc(O)cc1)[C@@H](C)O)C(C)C)C(C)C)C(=O)N[C@@H](CCCNC(=N)N)C(=O)N[C@@H](Cc1ccccc1)C(N)=O [Y-[Bpa2]DMS] (H-YT[Bpa]VDHVFLRF-NH2; N-terminus assumed)
D. melanogaster heart
  EC50: 0.13 nM

## CN(C)CCCn1cc(C2=C(c3c[nH]c4ccccc34)C(=O)NC2=O)c2ccccc21 [bis-1, bisindolylmaleimide-1, reference compound]
[1]; 500 ηM inhibitor, 15 minutes
  effect of inhibitor on the influence of 10^−8 M hRFRP-1 on shortening amplitude, shortening and re-lengthening rates: largely blocked

## AFLRFamide (AFLRF-NH2)
D. melanogaster heart
  effect on fly heart rate / contractility (in words): capable of not only binding, but exerting an effect on cardiac contractility

## FANLPLRFamide (FANLPLRF-NH2)
[1]
  ability to bind and affect myocyte contractile function: in a manner similar to the parent peptide hRFRP-1

## FLRFamide (FLRF-NH2)
D. melanogaster heart
  effect on fly heart rate / contractility (in words): DMS antagonist

## KGGFSFRFamide (KGGFSFRF-NH2; listed as Rattus norvegicus) [26RFa(19-26), reference compound]
[1]; 15 minutes
  % Change baseline SL: −0.4 ± 0.2%
  % Change dep v (shortening rate): −5.3 ± 5.6%
  % Change peak h (shortening amplitude): −7.7 ± 4.8%
  % Change ret v (re-lengthening rate): −8.1 ± 5.0%

## LAEELSSYSRRKGGFSFRFamide (LAEELSSYSRRKGGFSFRF-NH2) [26RFa(8-26), reference compound]
[1]; 15 minutes
  % Change baseline SL: −0.04 ± 0.1%
  % Change dep v (shortening rate): −6.0 ± 4.4%
  % Change peak h (shortening amplitude): −4.3 ± 5.7%
  % Change ret v (re-lengthening rate): −7.3 ± 6.3%

## LPLRFamide (LPLRF-NH2)
[1]
  ability to bind and affect myocyte contractile function: in a manner similar to the parent peptide hRFRP-1

## MP(Bpa)SFANLPLRFamide (MP[Bpa]SFANLPLRF-NH2; N-terminus assumed; SMILES CSCC[C@H](N)C(=O)N1CCC[C@H]1C(=O)N[C@@H](Cc1ccc(C(=O)c2ccccc2)cc1)C(=O)N[C@@H](CO)C(=O)N[C@@H](Cc1ccccc1)C(=O)N[C@@H](C)C(=O)N[C@@H](CC(N)=O)C(=O)N[C@@H](CC(C)C)C(=O)N1CCC[C@H]1C(=O)N[C@@H](CC(C)C)C(=O)N[C@@H](CCCNC(=N)N)C(=O)N[C@@H](Cc1ccccc1)C(N)=O) [[Bpa3]hRFRP-1]
[1]
  character relative to hRFRP-1 on myocyte contractile function (agonist, antagonist, reverse agonist; in words): increases cardiac function

## PHSFANLPLRFamide (PHSFANLPLRF-NH2)
[1]
  character relative to hRFRP-1 on myocyte contractile function (agonist, antagonist, reverse agonist; in words): super-agonist

## PKI-(Myr-14-22)-amide (Myristoyl-SGRTGRRNA-NH2; SMILES CCCCCCCCCCCCCC(=O)N[C@@H](CO)C(=O)NCC(=O)N[C@@H](CCCNC(=N)N)C(=O)N[C@H](C(=O)NCC(=O)N[C@@H](CCCNC(=N)N)C(=O)N[C@@H](CCCNC(=N)N)C(=O)N[C@@H](CC(N)=O)C(=O)N[C@@H](C)C(N)=O)[C@@H](C)O; UniProt P61925 14-22, looked up, fragment) [reference compound]
[1]; isolated ventricular cardiac myocytes
  effect of inhibitor on the activity of hRFRP-1: modifies the activity of hRFRP-1

## PQRFamide (PQRF-NH2)
[1]
  ability to bind and affect myocyte contractile function: in a manner similar to the parent peptide hRFRP-1

## TDVDAVFLRFamide (TDVDAVFLRF-NH2) [[A5]DMS]
D. melanogaster heart
  effect on fly heart rate / contractility (in words): increase heart rate

## TDVDHAFLRFamide (TDVDHAFLRF-NH2) [[A6]DMS]
D. melanogaster heart
  effect on fly heart rate / contractility (in words): increase heart rate

## VDHVFLRFamide (VDHVFLRF-NH2)
D. melanogaster heart
  effect on fly heart rate / contractility (in words): activity similar to the parent DMS peptide

## VFLRFamide (VFLRF-NH2)
D. melanogaster heart
  effect on fly heart rate / contractility (in words): capable of not only binding, but exerting an effect on cardiac contractility

## VPHSAANLPLRFamide (VPHSAANLPLRF-NH2; listed as Rattus norvegicus) [rRFRP-1]
[1]; 15 minutes
  % Change baseline SL: −0.3 ± 0.1%
  % Change dep v (shortening rate): −22.1±6.0%
  % Change peak h (shortening amplitude): −17.7±4.3%
  % Change ret v (re-lengthening rate): −25.5±3.9%

## YMPIISFANLPLRF-NH2 [Y-hRFRP-1]
[1]
  character relative to hRFRP-1 on myocyte contractile function (agonist, antagonist, reverse agonist; in words): hRFRP-1 agonist

## [A9]hRFRP-1: parent hRFRP-1 peptide where the 9th amino acid is replaced by an alanyl residue (MPHSFANLALRF-NH2; listed as Homo sapiens)
[1]; 10^−8M alanine analogs
  peak shortening (peak h) compared with unsubstituted hRFRP-1: significantly different
  relaxation (ret v) compared with unsubstituted hRFRP-1: significantly different
